Test [1] has as its system A549. In words: Cytotoxicity against human A549 cells after 24 hrs visualized by Lofflers methylene blue by colony forming assay in presence of beta-D-glucuronidase. It counts as functional, cell-based.
Test [2] relates to A549. The test is described as follows: Cytotoxicity against human A549 cells after 24 hrs visualized by Lofflers methylene blue by colony forming assay. It counts as functional, cell-based.
The test system of test [3] is A549. In words: Ratio of IC50 for human A549 cells to IC50 for human A549 cells in presence of beta-D-glucuronidase. The format is functional.

SMILES strings stand for the structures.

Turning to `C[C@@H](Cl)[C@@H]1CN(C(=O)c2cc3cc(OCCN(C)C)ccc3[nH]2)c2cc(O[C@@H]3O[C@H](C(=O)O)[C@@H](O)[C@H](O)[C@H]3O)c3ccccc3c21`, the half-inhibitory concentration (IC50) (commonly the point on the concentration scale where inhibition reaches its midpoint) in the test on A549 [1] turned out to be 0.0009 µM; with A549 [2], 0.61 µM. In the test on A549 [3], the “Ratio IC50” value is 700.
For `COC(=O)[C@H]1O[C@@H](Oc2cc3c(c4ccccc24)[C@H]([C@@H](C)Cl)CN3C(=O)c2cc3cc(OCCN(C)C)ccc3[nH]2)[C@H](O)[C@@H](O)[C@@H]1O`, the IC50 with A549 [1] stood at 0.0021 µM; in the test with A549 [2], 3.3 µM. The “Ratio IC50” value in the test with A549 [3] was 1600.

For the origin of these results see ChEMBL document CHEMBL1150780, “Duocarmycin-based prodrugs for cancer prodrug monotherapy” (Bioorg Med Chem, 2008).
